Article PMC10176470, “Engaging a Non-catalytic Cysteine Residue Drives Potent and Selective Inhibition of Caspase-6” (Journal of the American Chemical Society, 2023)

Target: caspase-6 (Homo sapiens, UniProt P55212)
Assay: biochemical
Description: Caspase-6 enzyme assay: The in vitro enzymatic caspase-6 assays utilize synthetic tetrapeptide
substrates labeled with either Rhodamine110 (R110) or 7-Amino-4-(trifluoromethyl)coumarin (AFC)
at the P1 aspartic acid (Asp) residue, as described.3 Briefly, assays were performed in 384-well plates
consisting of caspase-6, VEID-Rh110 or Ac-VEID-AFC and indicated concentration of inhibitor or
DMSO in assay buffer (50 mM HEPES pH 8.0, 100 mM NaCl, 1 mM EDTA, and 500 M ME).
All inhibitors were serially diluted in 100% DMSO prior to dilution in assay buffer and transfer to
assay plate, for a final DMSO concentration of 1%. Compound and protein were preincubated for 15 minutes prior to addition of substrate. The reaction plate was incubated at room temperature for 30
minutes and then read on an Envision (Perkin Elmer) fluorescent plate reader at excitation/emission
wavelengths of 485/535 nm (R110) or 395/495 nm (AFC). Data were processed to generate dose-
response curves and analyzed using a nonlinear curve fit with variable slope in Prism software

Sequence of caspase-6 (P55212 194-293): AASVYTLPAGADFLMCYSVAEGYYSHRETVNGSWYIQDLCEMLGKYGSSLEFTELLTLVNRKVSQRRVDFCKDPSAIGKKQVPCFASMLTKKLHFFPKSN
Sequence of caspase-6 (P55212 30-179): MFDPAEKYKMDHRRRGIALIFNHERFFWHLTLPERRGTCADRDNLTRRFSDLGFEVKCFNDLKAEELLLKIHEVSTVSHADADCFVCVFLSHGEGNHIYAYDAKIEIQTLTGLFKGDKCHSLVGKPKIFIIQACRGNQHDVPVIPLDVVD

C#CCOc1ccc([C@@H]2C[C@@H](C(=O)Nc3ccc(OC(F)(F)F)cc3)CN(S(=O)(=O)C=C)C2)cc1 (relative stereo) [13-t]
IC50: 48 ± 2 nM
